Where no end group is shown, it is not given here.
Legend:
Test in all cases: micro-dilution assay (MBC, LD90)
Type in all cases: cell-based
[1] = tested on: Providencia rettgeri NCTC 7475
Protocol: (§1) The anti-bacterial activity of hβD2 was tested by a micro-dilution assay. Bacteria and fungi were streaked from a glycerol stock onto a Brain Heart Infusion (BHI) agar plate (3.7% w/v BHI Bouillon, 1.5% w/v Agar), grown overnight at 37° C. and 30° C., respectively and subsequently used to inoculate 40 ml of 3.7% w/v BHI Bouillon without any antibiotics in 100 ml flasks. Fresh cells were harvested by centrifugation at 16000 rpm for 10 min and washed twice with 10 mM sodium phosphate buffer, pH 7.2. The optical density was adjusted to 10^4 cells/ml. For anti-bacterial testing hβD2 was incubated in one well of a microtiter plate containing 100 μl of the bacterial suspension. Therefore, ten microlitres of hβD2 solution with a range of final concentrations tested from 0.0125 up to and including 100 mg/l was added to the bacterial suspension and incubated at 37° C. and 30° C., respectively for 2 h before colony forming units were determined. Colony forming units (CFU) were determined after plating 100 μl of a 1:100 dilution of the bacterial suspension on petri dishes with BHI medium and incubating them overnight at 37° C. For every group of the hβD2 added samples and the controls, 5 independent anti-bacterial assays were performed. A control (NC) of bacterial growth was examined for every independent assay. The number of CFU on the control (consisting of a single petri dish) was set to 0% bactericidal activity. The reduction in the CFU resulting from the anti-bacterial activity of hβD2 was related to the absolute CFU of the control within every independent assay. This value, given as a percentage of the bacterial “killing” activity, was used to describe the antibacterial activity. This kind of normalisation of the antibacterial data was performed for every experimental group.
(§2) The antibacterial activity of hβD2 were given either as minimum bactericidal concentration (MBC), i.e., the minimum concentration of hβD2 in μg/ml which is required to kill 99.9% of the bacteria or fungi or as lethal dose (LD90), i.e., the concentration of hβD2 in μg/ml which is lethal for 90% of bacteria or fungi.

[2] = tested on: Issatchenkia orientalis ATCC 6258
Protocol: as §1, §2

[3] = tested on: Candida albicans ATCC 10231
Protocol: as §1, §2

[4] = tested on: Salmonella typhimurium ATCC 13311
Protocol: as §1, §2

[5] = tested on: Acinetobacter junii ATCC 17908
Protocol: as §1, §2

[6] = tested on: E. coli (ESBL 3) Va 4425/01 (wild-type)
Protocol: as §1, §2

[7] = tested on: Candida albicans C.a 46 (wild-type)
Protocol: as §1, §2

[8] = tested on: Serratia marcescens NCTC 10211
Protocol: as §1, §2

[9] = tested on: Acinetobacter Genosp. 11 ATCC 11171
Protocol: as §1, §2

[10] = tested on: Candida glabrata ATCC 90030
Protocol: as §1, §2

[11] = tested on: Klebsiella pneumoniae (ESBL) CF 31 (wild-type)
Protocol: as §1, §2

[12] = tested on: Proteus vulgaris ATCC 13315
Protocol: as §1, §2

[13] = tested on: Pseudomonas putida BK 4912
Protocol: as §1, §2

[14] = tested on: Stenotrophomonas maltophilia ATCC 17666
Protocol: as §1, §2

[15] = tested on: Candida tropicalis ATCC 750
Protocol: as §1, §2

[16] = tested on: Enterobacter aerogenes Va 12738/03 (wild-type)
Protocol: as §1, §2

[17] = tested on: Candida glabrata Va 27966/02 (wild-type)
Protocol: as §1, §2

[18] = tested on: Providencia stuartii NCTC 10318
Protocol: as §1, §2

[19] = tested on: Enterococcus faecalis ATCC 51299 VRE
Protocol: as §1, §2

[20] = tested on: Corynebacterium amycolatum RV A2/97
Protocol: as §1, §2

[21] = tested on: Candida albicans C.a 39 (wild-type)
Protocol: as §1, §2

[22] = tested on: Serratia marcescens Mero 041/145 (wild-type)
Protocol: as §1, §2

[23] = tested on: Morganella morganii RV B4/97
Protocol: as §1, §2

[24] = tested on: Prevotella intermedia ATCC 25611
Protocol: as §1, §2

[25] = tested on: Proteus mirabilis (ESBL 8) (wild-type)
Protocol: as §1, §2

[26] = tested on: Staphylococcus epidermidis ATCC 14990
Protocol: as §1, §2

Substance: human β-defensin-2 (GIGDPVTCLKSGAICHPVFCPRRYKQIGTCGLPGTKCCKKP; ends and bridges not checked; cysteine pairing not given here) [hβD2, recombinant hβD2]
- LD 90 = μg/ml 90% killing [1]: 100 µg/mL
- MBC = μg/ml 99.9% killing [1]: >100 µg/mL
- LD 90 = μg/ml 90% killing [2]: 6.25 µg/mL
- MBC = μg/ml 99.9% killing [2]: 50 µg/mL
- LD 90 = μg/ml 90% killing [3]: 12.5 µg/mL
- MBC = μg/ml 99.9% killing [3]: 25 µg/mL
- LD 90 = μg/ml 90% killing [4]: 1.56 µg/mL
- MBC = μg/ml 99.9% killing [4]: 6.25 µg/mL
- LD 90 = μg/ml 90% killing [5]: 3.125 µg/mL
- MBC = μg/ml 99.9% killing [5]: 12.5 µg/mL
- LD 90 = μg/ml 90% killing [6]: 6.25 µg/mL
- MBC = μg/ml 99.9% killing [6]: 12.5 µg/mL
- LD 90 = μg/ml 90% killing [7]: 6.25 µg/mL
- MBC = μg/ml 99.9% killing [7]: 25 µg/mL
- LD 90 = μg/ml 90% killing [8]: 50 µg/mL
- MBC = μg/ml 99.9% killing [8]: 100 µg/mL
- LD 90 = μg/ml 90% killing [9]: 0.39 µg/mL
- MBC = μg/ml 99.9% killing [9]: 3.125 µg/mL
- LD 90 = μg/ml 90% killing [10]: 50 µg/mL
- MBC = μg/ml 99.9% killing [10]: >100 µg/mL
- LD 90 = μg/ml 90% killing [11]: 6.25 µg/mL
- MBC = μg/ml 99.9% killing [11]: 25 µg/mL
- LD 90 = μg/ml 90% killing [12]: 3.125 µg/mL
- MBC = μg/ml 99.9% killing [12]: 12.5 µg/mL
- LD 90 = μg/ml 90% killing [13]: 6.25 µg/mL
- MBC = μg/ml 99.9% killing [13]: 12.5 µg/mL
- LD 90 = μg/ml 90% killing [14]: 6.25 µg/mL
- MBC = μg/ml 99.9% killing [14]: 50 µg/mL
- LD 90 = μg/ml 90% killing [15]: 1.56 µg/mL
- MBC = μg/ml 99.9% killing [15]: 25 µg/mL
- LD 90 = μg/ml 90% killing [16]: 6.25 µg/mL
- MBC = μg/ml 99.9% killing [16]: 25 µg/mL
- LD 90 = μg/ml 90% killing [17]: 12.5 µg/mL
- MBC = μg/ml 99.9% killing [17]: >100 µg/mL
- LD 90 = μg/ml 90% killing [18]: 100 µg/mL
- MBC = μg/ml 99.9% killing [18]: >100 µg/mL
- LD 90 = μg/ml 90% killing [19]: 50 µg/mL
- MBC = μg/ml 99.9% killing [19]: 100 µg/mL
- LD 90 = μg/ml 90% killing [20]: 6.25 µg/mL
- MBC = μg/ml 99.9% killing [20]: 25 µg/mL
- LD 90 = μg/ml 90% killing [21]: 12.5 µg/mL
- MBC = μg/ml 99.9% killing [21]: 50 µg/mL
- LD 90 = μg/ml 90% killing [22]: 25 µg/mL
- MBC = μg/ml 99.9% killing [22]: 100 µg/mL
- LD 90 = μg/ml 90% killing [23]: 100 µg/mL
- MBC = μg/ml 99.9% killing [23]: >100 µg/mL
- LD 90 = μg/ml 90% killing [24]: 3.125 µg/mL
- MBC = μg/ml 99.9% killing [24]: 3.125 µg/mL
- LD 90 = μg/ml 90% killing [25]: 100 µg/mL
- MBC = μg/ml 99.9% killing [25]: >100 µg/mL
- LD 90 = μg/ml 90% killing [26]: 50 µg/mL
- MBC = μg/ml 99.9% killing [26]: 100 µg/mL

From US20110311601A1, “ANTIMICROBIAL MEDICAL DEVICES” (priority 2010, published 2011)
